From US7888380B2, “1,2,4-Triazolylaminoaryl (heteroaryl) sulfonamide derivatives” (Janssen Pharmaceutica, N.V., priority 2004, dated 2011)
Structures can show the parent of a compound that is named as a salt. Where two headings read alike, the source gives them in different places.

Assays:
CDK1:Cyclin-B = molecular target: T1, CDK1:Cyclin-B (Homo sapiens, UniProt P06493); assay: CDK1 Screening Assay (33P-ATP FlashPlate); assay type: biochemical; conditions: 10 μM ATP; >10 or >100 = less than 50% inhibition at highest concentration tested
T1 construct: purchased New England Biolabs, Beverly, Mass; 6020; host or cells: insect cells
T1 sequence (P06493 whole entry): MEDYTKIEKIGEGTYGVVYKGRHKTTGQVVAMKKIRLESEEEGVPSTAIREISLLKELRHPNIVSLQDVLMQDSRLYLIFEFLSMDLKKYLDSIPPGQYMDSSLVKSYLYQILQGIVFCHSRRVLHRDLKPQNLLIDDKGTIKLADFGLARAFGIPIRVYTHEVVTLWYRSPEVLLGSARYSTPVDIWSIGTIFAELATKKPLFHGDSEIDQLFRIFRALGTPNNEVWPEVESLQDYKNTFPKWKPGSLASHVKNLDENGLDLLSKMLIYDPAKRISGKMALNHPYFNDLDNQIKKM
T1 sequence (P14635 whole entry partner): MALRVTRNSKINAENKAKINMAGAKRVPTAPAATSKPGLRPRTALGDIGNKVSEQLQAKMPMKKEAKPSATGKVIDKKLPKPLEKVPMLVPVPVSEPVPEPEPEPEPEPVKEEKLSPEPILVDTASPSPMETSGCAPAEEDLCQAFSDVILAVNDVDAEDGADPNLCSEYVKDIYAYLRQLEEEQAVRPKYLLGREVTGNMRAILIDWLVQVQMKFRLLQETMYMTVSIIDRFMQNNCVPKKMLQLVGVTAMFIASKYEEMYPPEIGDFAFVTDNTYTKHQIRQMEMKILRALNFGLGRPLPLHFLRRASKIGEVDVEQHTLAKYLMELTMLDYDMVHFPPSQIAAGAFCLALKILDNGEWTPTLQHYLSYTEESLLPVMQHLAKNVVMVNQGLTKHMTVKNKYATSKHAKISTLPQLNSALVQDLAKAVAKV
Experimental: A kinase reaction mixture was prepared containing 50 mM Tris-HCl pH=8, 10 mM MgCl2, 0.1 mM Na3PO4, 1 mM DTT, 10 μM ATP, 0.025 μM biotinylated histone-H1 peptide substrate and 0.2 μCuries per well ^33P-γ-ATP (2000-3000 Ci/mmol). 70 μL of the kinase reaction mixture was dispensed into each well of a streptavidin coated FlashPlate™ (Cat. # SMP103, NEN, Boston, Mass.). Then 1 μL of test compound stock in 100% DMSO was added to the wells resulting in a final concentration of 1% DMSO in the reaction with a 100 μl final reaction volume.
Next, CDK1:Cyclin-B protein was diluted in 50 mM Tris-HCl pH=8.0, 0.1% BSA at a concentration of 1 ng per μL and 30 μL (30 ng enzyme per test well) was added to each well to initiate the reaction. The reaction was incubated for one hour at 30° C. At the end of the 1 h incubation, the reaction was terminated by aspirating the mixture from the plate and washing the wells twice with PBS containing 100 mM EDTA. The histone-H1 biotinylated peptide substrate became immobilized on the Flashplate™ and the incorporation of ^33P-γ-ATP was measured by reading the plate on a scintillation counter. Inhibition of the enzymatic activity of CDK1 was measured by observing a reduced amount of ^33P-γ-ATP incorporated into the immobilized peptide.
VEGF-R (vascular endothelial growth factor receptor-2) is a fusion protein containing a polyhistidine tag at the N-terminus followed by amino acids 786-1343 of the rat VEGF-R2 kinase domain (GenBank Accession #U93306). CDK1 (cyclin dependent kinase 1) was isolated from insect cells expressing both the human CDK1 catalytic subunit and its positive regulatory subunit cyclin B (New England Biolabs, Beverly, Mass., Cat. # 6020). CDK2 in complex with cyclin A is commercially available (Upstate Biotech, Lake Placid, N.Y.). The HER2 (human epidermal growth factor receptor-2) construct contains a polyhistidine tag at the N-terminus followed by 24 additional amino acids and begins at amino acid 676 followed by the remainder of the HER2 cytoplasmic domain.

[1] = test system: HeLa cervical adenocarcinoma; assay: Inhibition of cell proliferation (14C-thymidine incorporation), HeLa; assay type: cell-based
Experimental: The ability of a test compound to inhibit the proliferation of cell growth was determined by measuring incorporation of ^14C-labelled thymidine into newly synthesized DNA within the cells. This method was used on cell lines derived from carcinomas originating from several tissues such as HeLa cervical adenocarcinoma (American Type Culture Collection (ATCC), Virginia, Cat. #CCL-2), A375 malignant melanoma (ATCC CRL-1619), and HCT-116 colon carcinoma (CCL-247). In this way the effect of a compound on cell growth of cells with many different phenotypes can be determined. Cells were trypsinized and counted and 3000-8000 cells were added to each well of a 96-well CytoStar tissue culture treated scintillating microplate (Amersham #RPNQ0160) in complete medium in a volume of 100 μl. Cells were incubated for 24 hours in complete medium at 37° C. in an atmosphere containing 5% CO2.
Next, 1 μl of test compound in 100% DMSO was added to the wells of the plate. DMSO only was added to control wells. Cells were incubated for 24 more hours in complete medium at 37° C. in an atmosphere containing 5% CO2. Methyl ^14C-thymidine 56 mCi/mmol (NEN #NEC568 or Amersham #CFA532) was diluted in complete medium and 0.2 uCi/well was added to each well of the CytoStar plate in a volume of 20 ul. The plate was incubated for 24 hours at 37° C. plus 5% CO2 in drug plus ^14C-thymidine. The contents of the plate were discarded into a ^14C radioactive waste container by inverting the plate and the plate was washed twice with 200 μl PBS.
200 μl of PBS was added to each well. The top of the plate was sealed with a transparent plate sealer and a white plate backing sealer (Packard #6005199) was applied to the bottom of the plate. The degree of methyl ^14C-thymidine incorporation was quantified on a Packard Top Count.

[2] = Standard Rat Pharmacokinetics (PK); assay type: in vivo; conditions: for Cmax: rat plasma; for bioavailability: plasma
Experimental: The conversion of prodrug to active form was evaluated using a standard rat PK protocol. The following procedure may be followed.
Rats were dosed intravenously (IV) at the level of 1.5-3 mg/kg and by oral gavage (PO) at the level of 10-30 mg/kg with prodrug candidate. For each study, four rats were used for IV dosing and four rats were used for PO dosing. Prodrug was typically formulated for IV dosing as a solution in 10% W/V solutol in 5% dextrose in sterile water vehicle (D5W). Prodrug was typically formulated for oral dosing as a uniform suspension in 0.5% methylcellulose vehicle. Blood samples (0.5 mL) were collected into heparinized tubes post dose via orbital sinus puncture. For IV dosing, blood samples were collected at 5, 15 and 30 mins, 1, 2, 4, 6, 8, and 24 hrs after the dosing. For PO dosing, blood samples were collected at 30 mins, 1, 2, 4, 6, 8 and 24 hrs. Blood samples were centrifuged for cell removal, and precisely 200 μL of plasma supernatant was then transferred to a clean vial, placed on dry ice, and subsequently stored in a −70° C. freezer prior to analysis. Results were calculated by WinNonlin Pro version 3.1. Plasma levels were determined and the oral and intravenous area under the concentration vs. time curve (AUC) were compared to determine the % bioavailability (% F) by the following formula: Dose(IV)*AUC(oral)/Dose (oral)*AUC(IV).

[3] = IV 3 mg/kg of prodrug, read-out: Prodrug Cmax (μM) IV
[4] = PO 30 mg/kg of prodrug, read-out: Prodrug Cmax (μM) PO
[5] = rat, IV/PO 3/30 mg/kg, Dose(IV)*AUC(oral)/Dose(oral)*AUC(IV)
[6] = rat, IV/PO 2/10 mg/kg, Dose(IV)*AUC(oral)/Dose(oral)*AUC(IV)
[7] = IV 2 mg/kg of prodrug, read-out: Prodrug Cmax (μM) IV
[8] = PO 10 mg/kg of prodrug, read-out: Prodrug Cmax (μM) PO

Molecule | IC50 (CDK1:Cyclin-B) [µM] | Cmax [2, 3] [µM] | IC50 ([1]; Homo sapiens) [µM] | bioavailability [2, 5] [%] | bioavailability [2, 6] [%] | also measured
4-[5-amino-1-(2,6-difluoro-benzoyl)-1H-[1,2,4]triazol-3-ylamino]-N-propionyl-benzenesulfonamide [Compound 20] | 1.82 | 33.5 |  |  |  | IC50 [1]: 58.8 µM; Cmax [2, 4]: 0.02 µM; % F [2, 5]: 0.34%
Nc1nc(Nc2ccc(S(=O)(=O)NC(=O)CCC(=O)O)cc2)nn1C(=O)c1c(F)cccc1F [Compound 1, 4-{4-[5-amino-1-(2,6-difluoro-benzoyl)-1H-[1,2,4]triazol-3-ylamino]-benzenesulfonylamino}-4-oxo-butyric acid] | 0.49 | 47 | 31.9 | 1 |  | Cmax [2, 4]: 0.36 µM
NCC(=O)NS(=O)(=O)c1ccc(Nc2nc(N)n(C(=O)c3c(F)cccc3F)n2)cc1 [Compound 2, N-(2-amino-acetyl)-4-[5-amino-1-(2,6-difluoro-benzoyl)-1H-[1,2,4]triazol-3-ylamino]-benzenesulfonamide] | 1.07 |  | 14.9 |  |  | bioavailability ([2]; rat, IV/PO 1.5/15 mg/kg, Dose(IV)*AUC(oral)/Dose(oral)*AUC(IV)): 0%; Cmax ([2]; IV 1.5 mg/kg of prodrug, read-out: Prodrug Cmax (μM) IV): 11.8 µM
COCCOCC(=O)NS(=O)(=O)c1ccc(Nc2nc(N)n(C(=O)c3c(F)cccc3F)n2)cc1 [Compound 3, 4-[5-amino-1-(2,6-difluoro-benzoyl)-1H-[1,2,4]triazol-3-ylamino]-N-[2-(2-methoxy-ethoxy)-acetyl]-benzenesulfonamide] | 1.66 | 42.9 | > 10 | 2 |  | Cmax [2, 4]: 0.32 µM
Nc1nc(Nc2ccc(S(=O)(=O)NC(=O)Cn3cnnn3)cc2)nn1C(=O)c1c(F)cccc1F [Compound 4, 4-[5-amino-1-(2,6-difluoro-benzoyl)-1H-[1,2,4]triazol-3-ylamino]-N-(2-tetrazol-1-yl-acetyl)-benzenesulfonamide] | 5.39 | 23.5 | > 100 | 0 |  | 
CN1CCN(CCC(=O)NS(=O)(=O)c2ccc(Nc3nc(N)n(C(=O)c4c(F)cccc4F)n3)cc2)CC1 [Compound 5, 4-[5-amino-1-(2,6-difluoro-benzoyl)-1H-[1,2,4]triazol-3-ylamino]-N-[3-(4-methyl-piperazin-1-yl)-propionyl]-benzenesulfonamide] | 1.34 |  | > 100 |  |  | bioavailability ([2]; rat, IV/PO 1.7/17 mg/kg, Dose(IV)*AUC(oral)/Dose(oral)*AUC(IV)): 0%; Cmax ([2]; IV 1.7 mg/kg of prodrug, read-out: Prodrug Cmax (μM) IV): 23.2 µM
CN(C)CC(=O)NS(=O)(=O)c1ccc(Nc2nc(N)n(C(=O)c3c(F)cccc3F)n2)cc1 [Compound 6, 4-[5-amino-1-(2,6-difluoro-benzoyl)-1H-[1,2,4]triazol-3-ylamino]-N-(2-dimethylamino-acetyl)-benzenesulfonamide] | 2.13 | 25.2 | > 10 | 0 |  | 
Nc1nc(Nc2ccc(S(=O)(=O)NC(=O)CCN3CCOCC3)cc2)nn1C(=O)c1c(F)cccc1F [Compound 7, 4-[5-amino-1-(2,6-difluoro-benzoyl)-1H-[1,2,4]triazol-3-ylamino]-N-(3-morpholin-4-yl-propionyl)-benzenesulfonamide] | 1.55 | 20.5 | 20.9 | 0 |  | 
CCOC(=O)CCC(=O)NS(=O)(=O)c1ccc(Nc2nc(N)n(C(=O)c3c(F)cccc3F)n2)cc1 [Compound 8, 4-{4-[5-amino-1-(2,6-difluoro-benzoyl)-1H-[1,2,4]triazol-3-ylamino]-benzenesulfonylamino}-4-oxo-butyric acid ethyl ester] | 0.47 | 72.2 | 60.2 | 0.17 |  | Cmax [2, 4]: 0.19 µM
COCCOCCOCC(=O)NS(=O)(=O)c1ccc(Nc2nc(N)n(C(=O)c3c(F)cccc3F)n2)cc1 [Compound 9, 4-[5-amino-1-(2,6-difluoro-benzoyl)-1H-[1,2,4]triazol-3-ylamino]-N-{2-[2-(2-methoxy-ethoxy)-ethoxy]-acetyl}-benzenesulfonamide] | 4.69 |  | > 10 |  | 0 | 
COCCOCCOCC(=O)Nc1nc(Nc2ccc(S(N)(=O)=O)cc2)nn1C(=O)c1c(F)cccc1F [Compound 10, N-[2-(2,6-difluoro-benzoyl)-5-(4-sulfamoyl-phenylamino)-2H-[1,2,4]triazol-3-yl]-2-[2-(2-methoxy-ethoxy)-ethoxy]-acetamide] | 2.55 |  | > 100 |  | 0 | Cmax [2, 7]: 67.3 µM
Nc1nc(Nc2ccc(S(=O)(=O)NC(=O)CCCC(=O)O)cc2)nn1C(=O)c1c(F)cccc1F [Compound 11, 5-{4-[5-amino-1-(2,6-difluoro-benzoyl)-1H-[1,2,4]triazol-3-ylamino]-benzenesulfonylamino}-5-oxo-pentanoic acid] | 12.4 |  | > 100 |  | 0 | Cmax [2, 7]: 81.8 µM; Cmax [2, 8]: 0.346 µM
Nc1nc(Nc2ccc(S(=O)(=O)NC(=O)COCCOCCOCC(=O)O)cc2)nn1C(=O)c1c(F)cccc1F [Compound 12, {2-[2-(2-{4-[5-amino-1-(2,6-difluoro-benzoyl)-1H-[1,2,4]triazol-3-ylamino]-benzenesulfonylamino}-2-oxo-ethoxy)-ethoxy]-ethoxy}-acetic acid.2TFA salt] | 0.76 |  | 30.8 |  | 0 | Cmax [2, 8]: 0.04 µM
Nc1nc(Nc2ccc(S(=O)(=O)NC(=O)[C@@H](N)CO)cc2)nn1C(=O)c1c(F)cccc1F [Compound 13, 4-[5-amino-1-(2,6-difluoro-benzoyl)-1H-[1,2,4]triazol-3-ylamino]-N—((S)-2-amino-3-hydroxy-propionyl)-benzenesulfonamide] | 1.41 |  | 4.02 |  | 0 | Cmax [2, 7]: 8.15 µM
